The nature of data set [1]: Plasmatic 3TC levels in patients with or without ddC-boosted 3TC treatment. It is filed as in vivo, human. The note with it: individual HIV patients, one line per patient and date, 3TC with low dose ddC or without ddC.
Protocol: It should be noted that for the plasma levels, the peak (post-dose) was at about 2 hours of the drug administration: this is not the case with intracellular triphosphate concentrations where the peaks might occur later than 2 hours post drug administration.
The subject of another data set is CD4+. Kind of data set: CD4+ count in treated patients (immunological data). It counts as in vivo, human. The note with it: individual patients by date; 3TC lines = before ddC was started.
In data set [2] the test system is HIV. The note with it: 300 mg instead of 150 mg; cited from earlier work.
The test system of a further data set is ddC phosphorylation. As to conditions: in vitro, identical concentration ratios of 10 to 100 μM; cited from earlier work.
The test system of the next data set is 3TC-TP formation. The note with it: in vitro; cited from earlier work.
Data set [3] has as its system HIV. It counts as in vivo. As to conditions: individual patients by date; 3TC lines = before ddC was started.
For data set [4] the following is noted: human, in vivo; cited from earlier work.
For data set [5] the following is noted: human, in vivo; cited from earlier work. This is another data set of the same source.
Another data set concerns 3TC phosphorylation. The note with it: in vitro, at extremely high ddC concentrations (10 to 100 higher than those of 3TC); cited from earlier work.
Data set [6] deals with HIV. As to conditions: cited from earlier work.

The text below walks through data of patent US7745455B2 (priority 2005, dated 2010).

Where “and” joins values, the source holds several entries; their conditions need not be identical. Equal entries are not always repeated.

On to `Nc1ccn([C@@H]2CS[C@H](CO)O2)c(=O)n1` [3TC, 2′ deoxy-3′-thiacytidine], for which the concentration at 2 h in data set [1] (human, in vivo, 3TC plasma levels 2 h post dose) was 700 ng/mL. In data set [1], the “3TC plasma levels 2 h post dose” value was 779 ng/ml and 1 057 ng/ml; the “3TC plasma levels Pre-dose” value is 143 ng/ml and 35 ng/ml (2×). Also, the “CD4+” value in the data set with CD4+ was 180 and 760 and 220 and 770. Moreover, the “effect of increased dose on 3TC-TP levels” value in the data set on HIV [2] was “did not significantly increased the 3TC-TP levels”. In addition, the “inhibition of ddC phosphorylation” value in the data set on ddC phosphorylation was “inhibited ddC phosphorylation in a concentration-dependent manner”. The “extracellular concentration at which 3TC-TP formation is saturated” value in the data set with 3TC-TP formation is 10 µM. In addition, in the data set with HIV [3], the Viral load is 291 392 ^ and 1 344 ^ and 124 and 445. Besides, the “3TC-TP levels reported in the literature” value in [4] is given as 1-5 μmol/10^6 PBMC.
With `Nc1ccn([C@H]2CC[C@@H](CO)O2)c(=O)n1` [ddC, 2′-3′-dideoxycytidine], the plasma levels in data set [5] is 500 to 1500 nM. Further, in the data set on 3TC phosphorylation, the “inhibition of 3TC phosphorylation” value is on record as “did inhibit in vitro 3TC phosphorylation”. Also, in the data set on HIV [6], the “concentration needed for antiretroviral activity (in vivo toxicity index)” value was 0.1 µM and the “toxic concentration (in vivo toxicity index)” value is 0.2 µM.
